Data as given in patent publication US9533977B2, “Oxazolidinone derivative as CETP inhibitor, its preparation method, and pharmaceutical composition comprising the same” (DONG-A ST CO., LTD., priority 2013, dated 2017).

molecular target: T1, CETP (Homo sapiens, UniProt P11597); experiment: Inhibitory activity against CETP in human plasma (Roar CETP activity kit, fluorescence); assay type: biochemical; details: plasma from healthy men diluted 1:10 in assay buffer, 37° C., 3 hrs, fluorescence 465/535 nm; read-out: IC50, Inhibition of CETP Activity in Human Plasma
T1 construct: from tissue; host or cells: human plasma from healthy men
T1 sequence (P11597 18-493): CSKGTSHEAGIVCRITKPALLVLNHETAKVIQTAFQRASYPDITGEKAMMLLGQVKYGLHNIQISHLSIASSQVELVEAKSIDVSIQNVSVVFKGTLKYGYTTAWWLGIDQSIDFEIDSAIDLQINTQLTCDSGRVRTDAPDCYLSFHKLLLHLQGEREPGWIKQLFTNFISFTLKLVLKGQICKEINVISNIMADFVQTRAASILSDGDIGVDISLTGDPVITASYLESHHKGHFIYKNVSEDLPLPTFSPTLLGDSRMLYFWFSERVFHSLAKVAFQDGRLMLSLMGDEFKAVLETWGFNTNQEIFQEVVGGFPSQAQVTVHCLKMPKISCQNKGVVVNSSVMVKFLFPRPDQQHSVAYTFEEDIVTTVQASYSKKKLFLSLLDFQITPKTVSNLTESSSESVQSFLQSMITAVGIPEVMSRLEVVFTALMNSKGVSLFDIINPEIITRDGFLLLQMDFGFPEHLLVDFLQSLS
Summary of the method: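 Healthy male human plasma, diluted 1:10, incubated 3 hrs at 37° C with donor/acceptor fluorescent substrates and compound (0.01–10000 nM, DMSO). Fluorescence at ex 465/em 535 nm, background-corrected against no-plasma and no-compound wells; IC50 from sigmoidal fit.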

| SMILES | IC50 [nM] |
| --- | --- |
| CCN(c1ncc(C(F)(F)F)cc1CN1C(=O)O[C@H](c2cc(C(F)(F)F)cc(C(F)(F)F)c2)[C@@H]1C)C1CCN(S(C)(=O)=O)CC1 [Example 32, (4S,5R)-5-[3,5-bis(trifluoromethyl)phenyl]-4-methyl-3-({[2-(ethyl)(1-methanesulfonylpiperidin-4-yl)amino]-5-trifluoromethylpyridin-3-yl}methyl)-oxazolidin-2-one] | 410 |
| CCN(c1ncc(-c2cn[nH]c2)cc1CN1C(=O)O[C@H](c2cc(C(F)(F)F)cc(C(F)(F)F)c2)[C@@H]1C)C1CCCCC1 [Example 68, (4S,5R)-5-[3,5-bis(trifluoromethyl)phenyl]-4-methyl-3-({[2-(ethyl)(cyclohexyl)amino]-5-(1H-pyrazol-4-yl)pyridin-3-yl}methyl)-oxazolidin-2-one] | 334 |
| CCN(C[C@H]1CC[C@H](CC(=O)O)CC1)c1ncc(-c2cn(C)nc2C)nc1CN1C(=O)OC(c2cc(C(F)(F)F)cc(C(F)(F)F)c2)[C@@H]1C (stereo partly drawn) [Example 108] | 45.9 |
| CCOC(=O)c1c(C)noc1-c1cnc(N(CC)C2CCCCC2)c(CN2C(=O)O[C@H](c3cc(C(F)(F)F)cc(C(F)(F)F)c3)[C@@H]2C)c1 [Example 74] | 63.2 |
| CCN(C[C@H]1CC[C@H](CC(=O)O)CC1)c1ncc(-c2cccnc2)nc1CN1C(=O)OC(c2cc(C(F)(F)F)cc(C(F)(F)F)c2)[C@@H]1C (stereo partly drawn) [Example 119] | 78.2 |
| CCN(c1ncc(N2CCCCC2)cc1CN1C(=O)O[C@H](c2cc(C(F)(F)F)cc(C(F)(F)F)c2)[C@@H]1C)C1CCOCC1 [Example 44, (4S,5R)-5-[3,5-bis(trifluoromethyl)phenyl]-4-methyl-3-({[2-(ethyl)(tetrahydro-2H-pyran-4-yl)amino]-5-(piperidin-1-yl)pyridin-3-yl}methyl)-oxazolidin-2-one] | 57 |

Stronger by IC50, values ahead:

| IC50 [nM] | SMILES |
| --- | --- |
| 22 | CCN(c1ncc(-c2cccs2)cc1CN1C(=O)O[C@H](c2cc(C(F)(F)F)cc(C(F)(F)F)c2)[C@@H]1C)C1CCCCC1 [Example 80, (4S,5R)-5-[3,5-bis(trifluoromethyl)phenyl]-4-methyl-3-({[2-(ethyl)(cyclohexyl)amino]-5-(thiophen-2-yl)pyridin-3-yl}methyl)-oxazolidin-2-one] |
| 17.7 | CCN(c1ncc(-c2sccc2C)cc1CN1C(=O)O[C@H](c2cc(C(F)(F)F)cc(C(F)(F)F)c2)[C@@H]1C)C1CCCCC1 [Example 78, (4S,5R)-5-[3,5-bis(trifluoromethyl)phenyl]-4-methyl-3-({[2-(ethyl)(cyclohexyl)amino]-5-(3-methyl-thiophen-2-yl)pyridin-3-yl}methyl)-oxazolidin-2-one] |
| 24.3 | CCN(c1ncc(-c2ccc(C)s2)cc1CN1C(=O)O[C@H](c2cc(C(F)(F)F)cc(C(F)(F)F)c2)[C@@H]1C)C1CCCCC1 [Example 79, (4S,5R)-5-[3,5-bis(trifluoromethyl)phenyl]-4-methyl-3-({[2-(ethyl)(cyclohexyl)amino]-5-(2-methyl-thiophen-5-yl)pyridin-3-yl}methyl)-oxazolidin-2-one] |
| 2.4 | CCN(c1ncc(N2CCCC2)cc1CN1C(=O)O[C@H](c2cc(C(F)(F)F)cc(C(F)(F)F)c2)[C@@H]1C)C1CCOCC1 [Example 41, (4S,5R)-5-[3,5-bis(trifluoromethyl)phenyl]-4-methyl-3-({[2-(ethyl)(tetrahydro-2H-pyran-4-yl)amino]-5-(pyrrolidin-1-yl)pyridin-3-yl}methyl)-oxazolidin-2-one] |
| 34 | C[C@H]1C(c2cc(C(F)(F)F)cc(C(F)(F)F)c2)OC(=O)N1Cc1nc(C2CCCC2)cnc1N(C)C[C@H]1CC[C@H](CC(=O)O)CC1 (stereo partly drawn) [Example 129] |
| 44.4 | CCNC1CCC(N(CC)c2ncc(C(F)(F)F)cc2CN2C(=O)O[C@H](c3cc(C(F)(F)F)cc(C(F)(F)F)c3)[C@@H]2C)CC1 (stereo partly drawn) [Example 23, (4S,5R)-5-[3,5-bis(trifluoromethyl)phenyl]-4-methyl-3-({[2-(ethyl)(4-ethylaminocyclohexyl)amino]-5-(trifluoromethyl)pyridin-3-yl}methyl)-oxazolidin-2-one] |
